Results reported in ChEMBL document CHEMBL5321218, “Bifunctional degraders of cyclin dependent kinase 9 (CDK9): Probing the relationship between linker length, properties, and selective protein degradation” (Eur J Med Chem, 2023).
Blank lines part the entries; values can stand above or below the compound they belong to. Calls of active or inactive are those of the source. The calls are words filed in the database; no cut-off is given here.

Columns and labels:
[1] = molecular target: T1, Protein cereblon/Cyclin-dependent kinase 9 (Homo sapiens, UniProt P50750+Q96SW2); assay: Protac activity at CRBN/CDK9 in human MV4-11 cells assessed as CDK9 degradation at 0.01 to 5 uM measured after 6 hrs by Western blot analysis; format: cell-based; conditions: dose 0.01-5 µM
Target sequence in this assay (P50750 whole entry, looked up): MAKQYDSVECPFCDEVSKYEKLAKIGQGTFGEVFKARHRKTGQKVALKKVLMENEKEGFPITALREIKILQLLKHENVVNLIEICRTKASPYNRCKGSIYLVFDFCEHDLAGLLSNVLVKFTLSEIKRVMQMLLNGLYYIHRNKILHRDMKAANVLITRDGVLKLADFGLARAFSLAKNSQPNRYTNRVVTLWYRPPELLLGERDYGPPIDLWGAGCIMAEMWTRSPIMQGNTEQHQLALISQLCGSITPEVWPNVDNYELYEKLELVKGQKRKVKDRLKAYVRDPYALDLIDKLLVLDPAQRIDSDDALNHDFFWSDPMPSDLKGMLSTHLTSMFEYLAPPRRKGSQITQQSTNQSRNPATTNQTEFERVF
Target sequence in this assay (Q96SW2 whole entry, looked up): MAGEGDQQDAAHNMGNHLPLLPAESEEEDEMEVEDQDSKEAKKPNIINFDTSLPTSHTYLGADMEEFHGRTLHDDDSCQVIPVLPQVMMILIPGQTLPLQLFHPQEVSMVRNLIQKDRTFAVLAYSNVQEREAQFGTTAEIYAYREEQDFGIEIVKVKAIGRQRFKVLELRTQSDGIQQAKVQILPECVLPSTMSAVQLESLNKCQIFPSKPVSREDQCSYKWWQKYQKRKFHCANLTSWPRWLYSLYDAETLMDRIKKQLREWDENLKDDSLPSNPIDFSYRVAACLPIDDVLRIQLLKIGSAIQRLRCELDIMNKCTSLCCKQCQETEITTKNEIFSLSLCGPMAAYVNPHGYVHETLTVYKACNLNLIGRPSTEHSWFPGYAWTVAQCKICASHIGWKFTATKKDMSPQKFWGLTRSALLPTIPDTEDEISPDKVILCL

[2] = tested on: MOLM-13; assay: Anticancer activity against human MOLM-13 cells assessed as cell growth inhibition measured after 48 hrs by MTS assay; format: functional, cell-based; conditions: MOLM-13, 48 h
[3] = molecular target: T1, Protein cereblon/Cyclin-dependent kinase 9; assay: Protac activity at CRBN/CDK9 in human MV4-11 cells assessed as CDK9 degradation at 1 uM measured after 6 hrs by Western blot analysis; format: cell-based
Target sequence in this assay (P50750 whole entry, looked up): as the sequence (P50750 whole entry, looked up) above
Target sequence in this assay (Q96SW2 whole entry, looked up): as the sequence (Q96SW2 whole entry, looked up) above

[4] = molecular target: T1, Protein cereblon/Cyclin-dependent kinase 9; assay: Protac activity at CRBN/CDK9 in human MV4-11 cells assessed as reduction in MCL-1 level at 1 uM measured after 6 hrs by Western blot analysis; format: cell-based
Target sequence in this assay (P50750 whole entry, looked up): as the sequence (P50750 whole entry, looked up) above
Target sequence in this assay (Q96SW2 whole entry, looked up): as the sequence (Q96SW2 whole entry, looked up) above

[5] = molecular target: T1, Protein cereblon/Cyclin-dependent kinase 9; assay: Protac activity at CRBN/CDK9 in human MV4-11 cells assessed as protein degradation at 1 uM treated for 6 hrs followed by compound washout measured after 24 hrs by Western blot analysis; format: cell-based
Target sequence in this assay (P50750 whole entry, looked up): as the sequence (P50750 whole entry, looked up) above
Target sequence in this assay (Q96SW2 whole entry, looked up): as the sequence (Q96SW2 whole entry, looked up) above

[6] = molecular target: T1, Protein cereblon/Cyclin-dependent kinase 9; assay: Protac activity at CRBN/CDK9 in human MV4-11 cells assessed as protein degradation at 1 uM treated for 6 hrs followed by compound washout measured after 48 hrs by Western blot analysis; format: cell-based
Target sequence in this assay (P50750 whole entry, looked up): as the sequence (P50750 whole entry, looked up) above
Target sequence in this assay (Q96SW2 whole entry, looked up): as the sequence (Q96SW2 whole entry, looked up) above

[7] = molecular target: T1, Protein cereblon/Cyclin-dependent kinase 9; assay: Protac activity at CRBN/CDK9 in human MV4-11 cells assessed as protein degradation at 1 uM measured after 6 hrs in presence of pomalidomide by Western blot analysis; format: cell-based
Target sequence in this assay (P50750 whole entry, looked up): as the sequence (P50750 whole entry, looked up) above
Target sequence in this assay (Q96SW2 whole entry, looked up): as the sequence (Q96SW2 whole entry, looked up) above

[8] = molecular target: T1, Protein cereblon/Cyclin-dependent kinase 9; assay: Protac activity at CRBN/CDK9 in human MV4-11 cells assessed as protein degradation at 1 uM measured after 6 hrs in presence of […] by Western blot analysis; format: cell-based
[9] = molecular target: T1, Protein cereblon/Cyclin-dependent kinase 9; assay: Protac activity at CRBN/CDK9 in human MV4-11 cells assessed as protein degradation at 1 uM measured after 6 hrs in presence of bortezomib by Western blot analysis; format: cell-based
[10] = molecular target: T1, Protein cereblon/Cyclin-dependent kinase 9; assay: Protac activity at CRBN/CDK9 in human MV4-11 cells assessed as protein degradation at 1 uM measured after 6 hrs in presence of carfilzomib by Western blot analysis; format: cell-based
[11] = molecular target: T1, Protein cereblon/Cyclin-dependent kinase 9; assay: Protac activity at CRBN/CDK9 isoform 42 in human MOLM-13 cells assessed assessed as protein degradation measured after 6 hrs by Western blot analysis; format: cell-based
Target sequence in this assay (P50750 whole entry): as the sequence (P50750 whole entry, looked up) above
Target sequence in this assay (Q96SW2 whole entry): as the sequence (Q96SW2 whole entry, looked up) above

[12] = molecular target: T1, Protein cereblon/Cyclin-dependent kinase 9; assay: Protac activity at CRBN/CDK9 isoform 55 in human MOLM-13 cells assessed assessed as protein degradation measured after 6 hrs by Western blot analysis; format: cell-based
Target sequence in this assay (P50750 whole entry): as the sequence (P50750 whole entry, looked up) above
Target sequence in this assay (Q96SW2 whole entry): as the sequence (Q96SW2 whole entry, looked up) above

[13] = molecular target: T1, Protein cereblon/Cyclin-dependent kinase 9; assay: Protac activity at CRBN/CDK9 isoform 42 in human MOLM-13 cells assessed assessed as protein degradation measured after 6 hrs by Western blot analysis relative to control; format: cell-based
[14] = molecular target: T1, Protein cereblon/Cyclin-dependent kinase 9; assay: Protac activity at CRBN/CDK9 isoform 55 in human MOLM-13 cells assessed assessed as protein degradation measured after 6 hrs by Western blot analysis relative to control; format: cell-based
[15] = molecular target: T1, Protein cereblon/Cyclin-dependent kinase 9; assay: Protac activity at CRBN/CDK9 in human MV4-11 cells assessed as reduction in MCL-1 level upto 5 uM measured after 6 hrs by Western blot analysis; format: cell-based
[16] = tested on: MV4-11; assay: Anticancer activity against human MV4-11 cells assessed as cell growth inhibition for 6 hrs followed by compound washout measured after 24 hrs by Annexin V/Propidium iodide staining based flow cytometric analysis; format: functional
[17] = molecular target: Cyclin-dependent kinase 9 (Homo sapiens) (UniProt P50750); assay: Induction of CDK9 degradation in human MOLM-13 cells assessed as fold change measured after 6 hrs by proteomics analysis; format: cell-based
Sequence of Cyclin-dependent kinase 9 (Homo sapiens) (P50750 whole entry): as the sequence (P50750 whole entry, looked up) above

[18] = tested on: T-lymphocyte; assay: Induction of CDK2 degradation in T-lymphocyte (unknown origin); format: cell-based
[19] = tested on: B-lymphocyte; assay: Induction of CDK2 degradation in B-lymphocyte (unknown origin); format: cell-based
[20] = tested on: MOLM-13; assay: Effect on ikaros expression in human MOLM-13 cells upto 5 uM measured after 6 hrs by Western blot analysis; format: functional, cell-based
[21] = tested on: MOLM-13; assay: Effect on aiolos expression in human MOLM-13 cells upto 5 uM measured after 6 hrs by Western blot analysis; format: functional, cell-based
[22] = molecular target: T1, Protein cereblon/Cyclin-dependent kinase 9; assay: Protac activity at CRBN/CDK9 in human MV4-11 cells assessed as reduction in c-Myc level upto 5 uM measured after 6 hrs by Western blot analysis; format: cell-based
[23] = tested on: MOLM-13; assay: Effect on ikaros expression in human MOLM-13 cells at 0.1 uM measured after 6 hrs by Western blot analysis; format: functional, cell-based
[24] = molecular target: T1, Protein cereblon/Cyclin-dependent kinase 9; assay: Protac activity at CRBN/CDK9 in human MV4-11 cells assessed as CDK9 degradation at 5 uM measured after 6 hrs by Western blot analysis; format: cell-based

EC50 [16]: 1100 nM
Structure (SMILES): O=C(NC1CCNCC1)c1n[nH]cc1NC(=O)c1c(Cl)cccc1Cl

Activity [1]: inactive
IC50 [2]: 47.4 µM
Structure (SMILES): O=C(CCCCNC(=O)COc1cccc2c1C(=O)N(C1CCC(=O)NC1=O)C2=O)NCCCCC(=O)N1CCC(NC(=O)c2n[nH]cc2NC(=O)c2c(Cl)cccc2Cl)CC1 (stereo not given)

IC50 [2]: 11.7 µM
Structure (SMILES): O=C(CCCCCNC(=O)COc1cccc2c1C(=O)N(C1CCC(=O)NC1=O)C2=O)NCCCCCC(=O)N1CCC(NC(=O)c2n[nH]cc2NC(=O)c2c(Cl)cccc2Cl)CC1 (stereo not given)

IC50 [2]: 2.7 µM
Structure (SMILES): O=C(COc1cccc2c1C(=O)N(C1CCC(=O)NC1=O)C2=O)NCCCCCC(=O)N1CCC(NC(=O)c2n[nH]cc2NC(=O)c2c(Cl)cccc2Cl)CC1 (stereo not given)

Activity [3]: Active
IC50 [2]: 42.1 µM
DC50 [11]: 30 nM
DC50 [12]: 50 nM
Emax [13]: 93.1%
Emax [14]: 91.6%
Activity [22]: Active
EC50 [16]: 200 nM
Structure (SMILES): O=C(CNc1cccc2c1C(=O)N(C1CCC(=O)NC1=O)C2=O)NCCCCCCCCCCC(=O)N1CCC(NC(=O)c2n[nH]cc2NC(=O)c2c(Cl)cccc2Cl)CC1 (stereo not given)
Activity [23]: inactive

Activity [24]: inactive
Structure (SMILES): O=C(COc1cccc2c1C(=O)N(C1CCC(=O)NC1=O)C2=O)NCCC(=O)Nc1cccc(C(=O)NCCC(=O)N2CCC(NC(=O)c3n[nH]cc3NC(=O)c3c(Cl)cccc3Cl)CC2)c1 (stereo not given)

Activity [3]: inactive
Activity [4]: inactive
IC50 [2]: 774 µM
Structure (SMILES): O=C1CCC(N2C(=O)c3cccc(NCC(=O)N4CCC(NC(=O)c5n[nH]cc5NC(=O)c5c(Cl)cccc5Cl)CC4)c3C2=O)C(=O)N1 (stereo not given)

IC50 [2]: 2.22 µM
Structure (SMILES): O=C(CCCCCCCCCNC(=O)COc1cccc2c1C(=O)N(C1CCC(=O)NC1=O)C2=O)NCCCCCCCCCC(=O)N1CCC(NC(=O)c2n[nH]cc2NC(=O)c2c(Cl)cccc2Cl)CC1 (stereo not given)

Activity [24]: inactive
Structure (SMILES): O=C(CCNC(=O)CNc1cccc2c1C(=O)N(C1CCC(=O)NC1=O)C2=O)NCCC(=O)NCCC(=O)N1CCC(NC(=O)c2n[nH]cc2NC(=O)c2c(Cl)cccc2Cl)CC1 (stereo not given)

Activity [3]: Active
Activity [4]: Active
IC50 [2]: 0.12 µM
Structure (SMILES): O=C(COc1cccc2c1C(=O)N(C1CCC(=O)NC1=O)C2=O)NCCCCCCCCCCCC(=O)N1CCC(NC(=O)c2n[nH]cc2NC(=O)c2c(Cl)cccc2Cl)CC1 (stereo not given)

IC50 [2]: 83.2 µM
Structure (SMILES): O=C(CCCCCCCCCCCNC(=O)COc1cccc2c1C(=O)N(C1CCC(=O)NC1=O)C2=O)NCCCCCCCCCCCC(=O)N1CCC(NC(=O)c2n[nH]cc2NC(=O)c2c(Cl)cccc2Cl)CC1 (stereo not given)

Continued, compound first:

Structure (SMILES): O=C(CCCCNC(=O)CNc1cccc2c1C(=O)N(C1CCC(=O)NC1=O)C2=O)NCCCCC(=O)N1CCC(NC(=O)c2n[nH]cc2NC(=O)c2c(Cl)cccc2Cl)CC1 (stereo not given)
Activity [1]: inactive
IC50 [2]: 29.7 µM

Structure (SMILES): O=C(CCCCCCCCNC(=O)COc1cccc2c1C(=O)N(C1CCC(=O)NC1=O)C2=O)NCCCCCCCCC(=O)N1CCC(NC(=O)c2n[nH]cc2NC(=O)c2c(Cl)cccc2Cl)CC1 (stereo not given)
IC50 [2]: 0.82 µM

Structure (SMILES): O=C(COc1cccc2c1C(=O)N(C1CCC(=O)NC1=O)C2=O)NCCCCCCCCCCC(=O)N1CCC(NC(=O)c2n[nH]cc2NC(=O)c2c(Cl)cccc2Cl)CC1 (stereo not given)
Activity [3]: Active
Activity [4]: Active
Activity [5]: Active
Activity [6]: inactive
Activity [7]: inactive
Activity [8]: inactive
Activity [9]: inactive
Activity [10]: inactive
IC50 [2]: 0.04 µM
DC50 [11]: 100 nM
DC50 [12]: 140 nM
Emax [13]: 93.1%
Emax [14]: 91.6%
Activity [15]: Active
EC50 [16]: 400 nM
fold change (FC) [17]: > 2
Activity [18]: Active
Activity [19]: Active
Activity [20]: inactive
Activity [21]: inactive

Structure (SMILES): O=C(CCCCCCNC(=O)COc1cccc2c1C(=O)N(C1CCC(=O)NC1=O)C2=O)NCCCCCCC(=O)N1CCC(NC(=O)c2n[nH]cc2NC(=O)c2c(Cl)cccc2Cl)CC1 (stereo not given)
IC50 [2]: 6.27 µM

Structure (SMILES): O=C(CCCCCCCCCNC(=O)CNc1cccc2c1C(=O)N(C1CCC(=O)NC1=O)C2=O)NCCCCCCCCCC(=O)N1CCC(NC(=O)c2n[nH]cc2NC(=O)c2c(Cl)cccc2Cl)CC1 (stereo not given)
IC50 [2]: 9.43 µM

Structure (SMILES): O=C(CCCCCNC(=O)CNc1cccc2c1C(=O)N(C1CCC(=O)NC1=O)C2=O)NCCCCCC(=O)N1CCC(NC(=O)c2n[nH]cc2NC(=O)c2c(Cl)cccc2Cl)CC1 (stereo not given)
IC50 [2]: 13 µM

Structure (SMILES): O=C(CCCCCCCCNC(=O)CNc1cccc2c1C(=O)N(C1CCC(=O)NC1=O)C2=O)NCCCCCCCCC(=O)N1CCC(NC(=O)c2n[nH]cc2NC(=O)c2c(Cl)cccc2Cl)CC1 (stereo not given)
IC50 [2]: 1.4 µM

Structure (SMILES): O=C(CCCCCCCCCCNC(=O)CNc1cccc2c1C(=O)N(C1CCC(=O)NC1=O)C2=O)NCCCCCCCCCCC(=O)N1CCC(NC(=O)c2n[nH]cc2NC(=O)c2c(Cl)cccc2Cl)CC1 (stereo not given)
IC50 [2]: 28.4 µM

Structure (SMILES): O=C(CCCCCCCCCCNC(=O)COc1cccc2c1C(=O)N(C1CCC(=O)NC1=O)C2=O)NCCCCCCCCCCC(=O)N1CCC(NC(=O)c2n[nH]cc2NC(=O)c2c(Cl)cccc2Cl)CC1 (stereo not given)
IC50 [2]: 22.2 µM

Structure (SMILES): O=C(CCCCCCCNC(=O)CNc1cccc2c1C(=O)N(C1CCC(=O)NC1=O)C2=O)NCCCCCCCC(=O)N1CCC(NC(=O)c2n[nH]cc2NC(=O)c2c(Cl)cccc2Cl)CC1 (stereo not given)
IC50 [2]: 3.01 µM

Structure (SMILES): O=C(COc1cccc2c1C(=O)N(C1CCC(=O)NC1=O)C2=O)NCCC(=O)N1CCC(NC(=O)c2n[nH]cc2NC(=O)c2c(Cl)cccc2Cl)CC1 (stereo not given)
Activity [3]: inactive
IC50 [2]: 39.7 µM

Structure (SMILES): O=C1CCC(N2C(=O)c3cccc(OCC(=O)N4CCC(NC(=O)c5n[nH]cc5NC(=O)c5c(Cl)cccc5Cl)CC4)c3C2=O)C(=O)N1 (stereo not given)
Activity [3]: inactive
IC50 [2]: 6.62 µM

Structure (SMILES): O=C(COc1cccc2c1C(=O)N(C1CCC(=O)NC1=O)C2=O)NCCOCCOCCOCC(=O)N1CCC(NC(=O)c2n[nH]cc2NC(=O)c2c(Cl)cccc2Cl)CC1 (stereo not given)
IC50 [2]: 92.2 µM

Structure (SMILES): O=C(COc1cccc2c1C(=O)N(C1CCC(=O)NC1=O)C2=O)NCCCCCCCC(=O)N1CCC(NC(=O)c2n[nH]cc2NC(=O)c2c(Cl)cccc2Cl)CC1 (stereo not given)
Activity [3]: Active
Activity [4]: Active
IC50 [2]: 0.21 µM

Structure (SMILES): O=C(COc1cccc2c1C(=O)N(C1CCC(=O)NC1=O)C2=O)NCCCCC(=O)N1CCC(NC(=O)c2n[nH]cc2NC(=O)c2c(Cl)cccc2Cl)CC1 (stereo not given)
IC50 [2]: 43.6 µM

Structure (SMILES): O=C(CCCCCCCNC(=O)COc1cccc2c1C(=O)N(C1CCC(=O)NC1=O)C2=O)NCCCCCCCC(=O)N1CCC(NC(=O)c2n[nH]cc2NC(=O)c2c(Cl)cccc2Cl)CC1 (stereo not given)
IC50 [2]: 2.39 µM

Structure (SMILES): O=C(CCCCCCNC(=O)CNc1cccc2c1C(=O)N(C1CCC(=O)NC1=O)C2=O)NCCCCCCC(=O)N1CCC(NC(=O)c2n[nH]cc2NC(=O)c2c(Cl)cccc2Cl)CC1 (stereo not given)
IC50 [2]: 6.96 µM
